Measurements as given in paper PMC12073402, “A Selective MAP3K1 Inhibitor Facilitates Discovery of NPM1 as a Member of the Network” (Molecules, 2025).

Legend:
Assay in all cases: KiNativ kinome profiling in PANC-1 lysate
Assay type in all cases: binding
PCTAIRE1 = target: T1, PCTAIRE1 (Homo sapiens, UniProt Q00536); settings: Lys1
T1 construct: endogenous in cells; host or cells: PANC-1 cell lysate
Excerpt: (§1) To assess target engagement and selectivity, we opted to conduct a kinome screen (KiNativ) in PANC-1 cell lysates. This chemical proteomics (chemoproteomics) methodology allows for the evaluation of small-molecule binding to protein kinases in native systems such as cell lysates. KiNativ utilizes a soluble chemical probe comprising ATP linked to biotin through an acyl-phosphate bond. The probe covalently modifies conserved lysine residues found in the ATP binding site of essentially all protein kinases (Figure 2A). To profile a kinase inhibitor, cell lysates are treated with a vehicle control or inhibitor prior to addition of the desthiobiotin ATP probe. The ATP probe occupies the ATP binding site in the kinase, which enables the conserved lysines to be biotinylated. […] The cell lysates are digested with a protease (trypsin), biotinylated peptides are affinity-enriched on streptavidin beads, and the labeled peptides are analyzed by liquid chromatography–tandem MS (Figure 2B). If an inhibitor binds to a kinase, it competes with the ATP, thus resulting in a loss of that kinase-associated peptide signal, allowing for the quantitative measurement of inhibitor binding. Unlike recombinant enzyme assays, KiNativ IC50 values are a direct measure of active site binding instead of enzymatic activity.
(§2) Kinome profiling quantified the activity of 51-106 against >300 kinases in the PANC-1 cells. The results summarized in Figure 2C are the average of duplicate control and duplicate treated samples with 5 μM of 51-106 or DMSO.
(§3) KiNativ assay with 51-106.
(§4) ATP Loop: ATP binding loop
(§5) Activation Loop: Activation loop
(§6) ATP: ATP site in non-canonical kinase (e.g. lipid kinase)
(§7) Protein Kinase Domain: Other lysine within kinase domain, possibly not in ATP binding site
(§8) Other: Labeling of residue outside of the protein kinase domain, possibly not in ATP binding site
(§9) No change. NB = No Binding (≤ 0)
(§10) >100% increase in MS signal (>2 fold increase)
(§11) Data points inhibited […] & not considered significant are left uncolored
(§12) Note: This KiNativ dataset is the result of an analysis of duplicate treated samples and control samples.
(§13) The % changes in MS signals being reported are statistically significant (Student T -test score < 0.04)

PFTAIRE1 = target: T2, PFTAIRE1 (Homo sapiens, UniProt O94921); settings: Lys1
T2 construct: endogenous in cells; host or cells: PANC-1 cell lysate
Excerpt: as §1, §2, §3, §4, §5, §6, §7, §8, §9, §10, §11, §12, §13

PKD1 = target: T3, PKD1 (Homo sapiens, UniProt Q15139); settings: Lys1
T3 construct: endogenous in cells; host or cells: PANC-1 cell lysate
Excerpt: as §1, §2, §3, §4, §5, §6, §7, §8, §9, §10, §11, §12, §13

PRP4 = target: T4, PRP4 (Homo sapiens, UniProt Q13523); settings: Lys2
T4 construct: endogenous in cells; host or cells: PANC-1 cell lysate
Excerpt: as §1, §2, §3, §4, §5, §6, §7, §8, §9, §10, §11, §12, §13

CHED = target: T5, CHED (Homo sapiens, UniProt Q14004); settings: Lys2
T5 construct: endogenous in cells; host or cells: PANC-1 cell lysate
Excerpt: as §1, §2, §3, §4, §5, §6, §7, §8, §9, §10, §11, §12, §13

MAST4 = target: T6, MAST4 (Homo sapiens, UniProt O15021); settings: Lys2
T6 construct: endogenous in cells; host or cells: PANC-1
Excerpt: as §1, §2, §3, §4, §5, §6, §7, §8, §9, §10, §11, §12, §13

CDK9 = target: T7, CDK9 (Homo sapiens, UniProt P50750)
T7 construct: endogenous in cells; host or cells: PANC-1 cell lysate
Excerpt: as §1, §2, §3, §4, §5, §6, §7, §8, §9, §10, §11, §12, §13

PKCa, PKCg = settings: 5 µM; Other; NLIPMDPNGLSDPYVKLK
Excerpt: as §1, §2, §3, §4, §5, §6, §7, §8, §9, §10, §11, §12, §13

TAO1, TAO3 = settings: 5 µM; Lys2; DIKAGNILLTEPGQVK
Excerpt: as §1, §2, §3, §4, §5, §6, §7, §8, §9, §10, §11, §12, §13

NDR2 = target: T8, NDR2 (Homo sapiens, UniProt Q9Y2H1)
T8 construct: endogenous in cells; host or cells: PANC-1 cell lysate
Excerpt: as §1, §2, §3, §4, §5, §6, §7, §8, §9, §10, §11, §12, §13

SIK = target: T9, SIK (Homo sapiens, UniProt P57059); settings: Lys1
T9 construct: endogenous in cells; host or cells: PANC-1 cell lysate
Excerpt: as §1, §2, §3, §4, §5, §6, §7, §8, §9, §10, §11, §12, §13

NEK7 = target: T10, NEK7 (Homo sapiens, UniProt Q8TDX7); settings: Lys1
T10 construct: endogenous in cells; host or cells: PANC-1 cell lysate
Excerpt: as §1, §2, §3, §4, §5, §6, §7, §8, §9, §10, §11, §12, §13

AurB = target: T11, AurB (Homo sapiens, UniProt Q96GD4); settings: Lys1
T11 construct: endogenous in cells; host or cells: PANC-1 cell lysate
Excerpt: as §1, §2, §3, §4, §5, §6, §7, §8, §9, §10, §11, §12, §13

STK33 = target: T12, STK33 (Homo sapiens, UniProt Q9BYT3); settings: Lys2
T12 construct: endogenous in cells; host or cells: PANC-1 cell lysate
Excerpt: as §1, §2, §3, §4, §5, §6, §7, §8, §9, §10, §11, §12, §13

NEK6, NEK7 = settings: 5 µM; Lys2; DIKPANVFITATGVVK
Excerpt: as §1, §2, §3, §4, §5, §6, §7, §8, §9, §10, §11, §12, §13

MAP3K2 = target: T13, MAP3K2 (Homo sapiens, UniProt Q9Y2U5); settings: Lys1
T13 construct: endogenous in cells; host or cells: PANC-1 cell lysate
Excerpt: as §1, §2, §3, §4, §5, §6, §7, §8, §9, §10, §11, §12, §13

MASTL = target: T14, MASTL (Homo sapiens, UniProt Q96GX5)
T14 construct: endogenous in cells; host or cells: PANC-1
Excerpt: as §1, §2, §3, §4, §5, §6, §7, §8, §9, §10, §11, §12, §13

[1] = system: CaMK2a, CaMK2b, CaMK2d, CaMK2g; settings: 5 µM; Lys2; DLKPENLLLASK
Excerpt: as §1, §2, §3, §4, §5, §6, §7, §8, §9, §10, §11, §12, §13

MST1 = target: T15, MST1 (Homo sapiens, UniProt Q13043); settings: Lys1
T15 construct: endogenous in cells; host or cells: PANC-1
Excerpt: as §1, §2, §3, §4, §5, §6, §7, §8, §9, §10, §11, §12, §13

ITPK1 = target: T16, ITPK1 (Homo sapiens, UniProt Q13572); settings: ATP Loop
T16 construct: we opted to conduct a kinome screen (KiNativ) in PANC-1 cell lysates; endogenous in cells; host or cells: PANC-1 cell lysate
Excerpt: as §1, §2, §3, §4, §5, §6, §7, §8, §9, §10, §11, §12, §13

PDK1 = target: T17, PDK1 (Homo sapiens, UniProt O15530); settings: Lys1
T17 construct: endogenous in cells; host or cells: PANC-1 cell lysate
Excerpt: as §1, §2, §3, §4, §5, §6, §7, §8, §9, §10, §11, §12, §13

MAP2K6 = target: T18, MAP2K6 (Homo sapiens, UniProt P52564); settings: for % Inhibition: 5 µM
T18 construct: endogenous in cells; host or cells: PANC-1 cell lysate
T18 sequence (P52564 1-334): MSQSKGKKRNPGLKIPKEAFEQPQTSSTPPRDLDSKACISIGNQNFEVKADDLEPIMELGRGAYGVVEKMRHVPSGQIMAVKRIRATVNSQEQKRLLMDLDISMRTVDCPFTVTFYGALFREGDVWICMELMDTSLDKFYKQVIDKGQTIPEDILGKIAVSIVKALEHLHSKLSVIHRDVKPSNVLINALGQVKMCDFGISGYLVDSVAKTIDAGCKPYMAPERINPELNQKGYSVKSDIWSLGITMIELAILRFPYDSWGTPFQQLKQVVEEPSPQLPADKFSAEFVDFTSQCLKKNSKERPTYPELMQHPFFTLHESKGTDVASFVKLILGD
Excerpt: as §1, §2, §3, §4, §5, §6, §7, §8, §9, §10, §11, §12, §13

CaMK2g = target: T19, CaMK2g (Homo sapiens, UniProt Q13555); settings: Lys1
T19 construct: endogenous in cells; host or cells: PANC-1 cell lysate
Excerpt: as §1, §2, §3, §4, §5, §6, §7, §8, §9, §10, §11, §12, §13

T14 sequence (Q96GX5 whole entry): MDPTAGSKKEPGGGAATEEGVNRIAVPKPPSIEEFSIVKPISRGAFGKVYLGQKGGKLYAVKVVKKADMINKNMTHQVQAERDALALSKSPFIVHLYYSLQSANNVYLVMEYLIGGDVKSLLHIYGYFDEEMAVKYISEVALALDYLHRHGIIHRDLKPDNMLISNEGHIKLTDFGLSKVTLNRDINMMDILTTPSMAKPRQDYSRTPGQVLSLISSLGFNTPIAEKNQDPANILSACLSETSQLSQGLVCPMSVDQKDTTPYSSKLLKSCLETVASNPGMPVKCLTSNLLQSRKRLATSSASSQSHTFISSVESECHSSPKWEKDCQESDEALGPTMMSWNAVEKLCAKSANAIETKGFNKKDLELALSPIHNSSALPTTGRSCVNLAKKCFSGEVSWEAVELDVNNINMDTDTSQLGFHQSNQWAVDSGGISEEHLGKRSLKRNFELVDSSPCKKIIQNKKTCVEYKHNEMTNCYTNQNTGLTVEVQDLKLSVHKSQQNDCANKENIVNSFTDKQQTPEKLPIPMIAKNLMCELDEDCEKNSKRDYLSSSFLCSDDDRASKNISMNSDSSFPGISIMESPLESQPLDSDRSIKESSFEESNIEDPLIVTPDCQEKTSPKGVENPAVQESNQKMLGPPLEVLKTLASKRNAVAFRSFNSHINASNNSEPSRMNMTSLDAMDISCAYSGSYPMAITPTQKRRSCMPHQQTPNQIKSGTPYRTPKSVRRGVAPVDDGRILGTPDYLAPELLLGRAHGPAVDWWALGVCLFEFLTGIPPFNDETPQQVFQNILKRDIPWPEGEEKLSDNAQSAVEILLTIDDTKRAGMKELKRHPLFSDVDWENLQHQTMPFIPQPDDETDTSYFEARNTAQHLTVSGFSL
T7 sequence (P50750 whole entry): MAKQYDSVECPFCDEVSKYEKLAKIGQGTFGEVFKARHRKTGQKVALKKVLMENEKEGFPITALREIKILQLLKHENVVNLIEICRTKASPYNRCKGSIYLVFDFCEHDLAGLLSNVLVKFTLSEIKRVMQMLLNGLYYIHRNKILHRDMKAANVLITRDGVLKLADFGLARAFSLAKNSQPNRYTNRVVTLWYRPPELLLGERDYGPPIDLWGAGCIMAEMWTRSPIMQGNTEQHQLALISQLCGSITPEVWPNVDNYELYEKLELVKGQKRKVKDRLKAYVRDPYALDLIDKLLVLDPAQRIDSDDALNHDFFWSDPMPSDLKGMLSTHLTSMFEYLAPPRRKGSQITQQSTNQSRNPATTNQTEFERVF
T8 sequence (Q9Y2H1 whole entry): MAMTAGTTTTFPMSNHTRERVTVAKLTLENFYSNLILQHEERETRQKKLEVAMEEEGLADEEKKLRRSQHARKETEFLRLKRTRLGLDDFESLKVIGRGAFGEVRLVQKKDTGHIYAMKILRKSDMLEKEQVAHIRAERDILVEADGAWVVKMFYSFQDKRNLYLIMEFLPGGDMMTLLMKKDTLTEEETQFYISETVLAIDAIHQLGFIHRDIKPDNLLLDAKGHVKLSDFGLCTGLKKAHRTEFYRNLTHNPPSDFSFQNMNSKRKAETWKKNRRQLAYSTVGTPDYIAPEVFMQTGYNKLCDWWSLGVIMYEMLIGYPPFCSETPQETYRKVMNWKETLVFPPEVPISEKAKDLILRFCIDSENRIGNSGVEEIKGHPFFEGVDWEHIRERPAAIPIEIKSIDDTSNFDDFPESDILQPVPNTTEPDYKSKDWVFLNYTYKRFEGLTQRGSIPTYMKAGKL
T3 sequence (Q15139 whole entry): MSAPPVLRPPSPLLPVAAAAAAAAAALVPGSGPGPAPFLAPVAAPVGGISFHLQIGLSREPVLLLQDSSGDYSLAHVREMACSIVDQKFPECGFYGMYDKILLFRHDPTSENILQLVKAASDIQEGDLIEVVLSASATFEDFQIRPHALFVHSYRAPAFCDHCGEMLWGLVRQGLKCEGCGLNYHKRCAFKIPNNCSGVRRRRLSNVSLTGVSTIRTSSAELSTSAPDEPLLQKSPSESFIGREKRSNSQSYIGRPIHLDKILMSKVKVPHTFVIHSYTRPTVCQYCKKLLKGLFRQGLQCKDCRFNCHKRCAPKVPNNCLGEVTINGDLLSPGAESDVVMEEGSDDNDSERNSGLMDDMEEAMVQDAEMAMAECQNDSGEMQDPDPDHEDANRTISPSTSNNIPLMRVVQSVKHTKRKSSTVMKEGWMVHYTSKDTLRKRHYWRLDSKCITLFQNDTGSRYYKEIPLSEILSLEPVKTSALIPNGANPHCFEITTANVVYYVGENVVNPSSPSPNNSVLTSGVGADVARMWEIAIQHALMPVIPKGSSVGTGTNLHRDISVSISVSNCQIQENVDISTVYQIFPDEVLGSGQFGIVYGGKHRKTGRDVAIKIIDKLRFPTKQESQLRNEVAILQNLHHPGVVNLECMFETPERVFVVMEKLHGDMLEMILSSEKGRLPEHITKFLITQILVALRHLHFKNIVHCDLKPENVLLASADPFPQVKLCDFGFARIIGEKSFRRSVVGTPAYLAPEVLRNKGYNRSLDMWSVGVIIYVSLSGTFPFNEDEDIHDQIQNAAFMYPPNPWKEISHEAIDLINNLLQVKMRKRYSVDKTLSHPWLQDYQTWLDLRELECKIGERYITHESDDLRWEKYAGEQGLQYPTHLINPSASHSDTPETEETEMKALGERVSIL
T15 sequence (Q13043 whole entry): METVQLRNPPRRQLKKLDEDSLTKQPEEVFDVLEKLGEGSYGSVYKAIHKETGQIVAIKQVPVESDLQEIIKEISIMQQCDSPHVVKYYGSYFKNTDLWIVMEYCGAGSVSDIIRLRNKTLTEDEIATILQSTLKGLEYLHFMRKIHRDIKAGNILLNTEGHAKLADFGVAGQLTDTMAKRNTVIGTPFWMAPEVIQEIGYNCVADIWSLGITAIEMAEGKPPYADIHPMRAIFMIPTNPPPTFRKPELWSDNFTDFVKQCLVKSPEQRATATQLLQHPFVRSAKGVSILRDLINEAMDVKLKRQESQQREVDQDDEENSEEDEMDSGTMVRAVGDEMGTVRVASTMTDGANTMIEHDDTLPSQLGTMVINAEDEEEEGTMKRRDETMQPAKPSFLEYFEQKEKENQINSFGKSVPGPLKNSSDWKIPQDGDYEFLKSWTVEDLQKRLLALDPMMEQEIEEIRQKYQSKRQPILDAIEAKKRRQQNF
T9 sequence (P57059 whole entry): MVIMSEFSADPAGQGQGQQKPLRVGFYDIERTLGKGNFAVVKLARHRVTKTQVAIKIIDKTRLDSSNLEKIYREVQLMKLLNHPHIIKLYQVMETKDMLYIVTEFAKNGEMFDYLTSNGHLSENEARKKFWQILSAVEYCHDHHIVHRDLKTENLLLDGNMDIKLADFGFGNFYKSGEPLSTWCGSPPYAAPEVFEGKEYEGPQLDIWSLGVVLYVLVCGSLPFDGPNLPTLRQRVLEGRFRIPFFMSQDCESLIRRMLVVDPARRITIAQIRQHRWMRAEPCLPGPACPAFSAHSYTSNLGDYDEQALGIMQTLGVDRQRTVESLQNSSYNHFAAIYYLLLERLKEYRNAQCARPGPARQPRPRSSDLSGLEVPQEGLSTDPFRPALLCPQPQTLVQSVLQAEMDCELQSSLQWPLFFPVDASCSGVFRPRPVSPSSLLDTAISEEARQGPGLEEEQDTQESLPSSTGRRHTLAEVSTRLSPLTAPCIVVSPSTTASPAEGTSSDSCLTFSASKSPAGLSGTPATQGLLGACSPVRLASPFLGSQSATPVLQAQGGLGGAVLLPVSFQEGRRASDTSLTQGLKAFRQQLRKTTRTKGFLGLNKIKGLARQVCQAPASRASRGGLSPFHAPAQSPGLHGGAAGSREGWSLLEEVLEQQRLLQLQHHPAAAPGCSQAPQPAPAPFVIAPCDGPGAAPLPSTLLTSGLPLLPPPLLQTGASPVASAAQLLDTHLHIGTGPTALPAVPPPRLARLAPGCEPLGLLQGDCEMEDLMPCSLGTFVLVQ
T11 sequence (Q96GD4 whole entry): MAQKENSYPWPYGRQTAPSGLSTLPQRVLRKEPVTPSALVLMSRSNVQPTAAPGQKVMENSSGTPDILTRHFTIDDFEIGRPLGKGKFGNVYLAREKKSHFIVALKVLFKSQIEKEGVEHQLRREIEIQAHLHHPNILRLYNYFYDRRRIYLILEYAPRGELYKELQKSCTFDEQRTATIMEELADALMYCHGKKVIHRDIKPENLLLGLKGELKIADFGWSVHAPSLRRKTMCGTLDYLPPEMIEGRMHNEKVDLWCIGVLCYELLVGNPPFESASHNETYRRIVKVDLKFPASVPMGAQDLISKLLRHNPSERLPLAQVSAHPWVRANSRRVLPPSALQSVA
T10 sequence (Q8TDX7 whole entry): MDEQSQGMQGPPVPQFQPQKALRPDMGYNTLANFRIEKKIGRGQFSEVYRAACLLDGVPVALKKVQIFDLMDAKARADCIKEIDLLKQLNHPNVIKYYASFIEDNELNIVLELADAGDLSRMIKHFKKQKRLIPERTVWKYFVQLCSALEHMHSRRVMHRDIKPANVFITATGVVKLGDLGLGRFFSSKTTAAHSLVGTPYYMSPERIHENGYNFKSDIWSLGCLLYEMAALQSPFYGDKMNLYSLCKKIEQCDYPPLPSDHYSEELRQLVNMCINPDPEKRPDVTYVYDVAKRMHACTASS
T2 sequence (O94921 whole entry): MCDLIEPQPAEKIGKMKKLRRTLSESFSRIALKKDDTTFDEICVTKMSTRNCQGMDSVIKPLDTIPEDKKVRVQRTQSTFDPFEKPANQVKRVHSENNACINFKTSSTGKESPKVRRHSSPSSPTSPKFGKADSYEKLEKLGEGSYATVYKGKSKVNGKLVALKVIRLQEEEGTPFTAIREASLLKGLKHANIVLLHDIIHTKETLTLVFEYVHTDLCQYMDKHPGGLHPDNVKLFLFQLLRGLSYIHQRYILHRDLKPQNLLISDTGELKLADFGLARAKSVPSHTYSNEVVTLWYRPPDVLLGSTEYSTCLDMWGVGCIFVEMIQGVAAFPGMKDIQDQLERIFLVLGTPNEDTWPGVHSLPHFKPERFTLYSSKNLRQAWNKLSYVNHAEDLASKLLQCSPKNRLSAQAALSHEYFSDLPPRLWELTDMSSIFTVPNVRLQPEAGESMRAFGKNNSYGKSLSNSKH

In the case of `Cn1cc(-c2cnc3ccc(NC(=O)Nc4ccc(F)c(C(F)(F)F)c4)cc3n2)cn1` [51-106, 1-(4-Fluoro-3-(trifluoromethyl)phenyl)-3-(3-(1-methyl-1H-pyrazol-4-yl)quinoxalin-6-yl)urea], the inhibition at 5 µM (PCTAIRE1) is reported as no more than 0%, the inhibition at 5 µM (PFTAIRE1) is reported as 7.7% and the inhibition at 5 µM (PKD1) is reported as no more than 0%. The inhibition at 5 µM (PRP4) was no more than 0%, the inhibition at 5 µM (CHED) was no more than 0% and the inhibition at 5 µM (MAST4) was no more than 0%. The “% Inhibition” value (CDK9; 5 µM, Lys2, DMKAANVLITR) was “NB (NB = No Binding (≤ 0))”, the inhibition at 5 µM (CDK9; ATP Loop, […]) was no more than 0% and the “% Inhibition” value (PKCa, PKCg) was “NB (NB = No Binding (≤ 0))”. The “% Inhibition” value (TAO1, TAO3) was 4.9%, the inhibition at 5 µM (NDR2; Lys1, DTGHIYAMKILR) was no more than 0% and the inhibition at 5 µM (NDR2; Lys2, DIKPDNLLLDAK) was 7.6%. The inhibition at 5 µM (SIK) was 23.3%, the inhibition at 5 µM (NEK7) was 10.3% and the inhibition at 5 µM (AurB) was no more than 0%. The inhibition at 5 µM (STK33) was 26.6%, the “% Inhibition” value (NEK6, NEK7) was 24.8% and the inhibition at 5 µM (MAP3K2) was no more than 0%. For the same compound, the inhibition at 5 µM (MASTL; ATP Loop, GAFGKVYLGQK) was 8.6%, the inhibition at 5 µM (MASTL; Lys1, LYAVKVVK) was no more than 0% and the “% Inhibition” value [1] was “NB (NB = No Binding (≤ 0))”. For the same compound, the inhibition at 5 µM (MST1) was no more than 0%, the inhibition at 5 µM (ITPK1) was no more than 0% and the inhibition at 5 µM (PDK1) was no more than 0%. For the same compound, the “% Inhibition” value (MAP2K6; Lys1, HVPSGQIMAVKR) was “NB (NB = No Binding (≤ 0))”, the “% Inhibition” value (MAP2K6; Lys2, DVKPSNVLINALGQVK) was “NB (NB = No Binding (≤ 0))” and the inhibition at 5 µM (MAP2K6; ATP Loop, […]) was no more than 0%. For the same compound, the inhibition at 5 µM (CaMK2g) was 7.1%.
